Experimental data taken from ChEMBL document CHEMBL1201862, “PubChem BioAssay data set” (2004).
Activity calls are given as the source filed them.

Tests used:
[1] = molecular target: T1, Bcl-2-related protein A1 (Mus musculus, UniProt Q07440); assay: Bfl-1 binding inhibitors, SAR follow-up, biochemical, fluorescence polarization (AID 1070)
T1 sequence (Q07440 whole entry): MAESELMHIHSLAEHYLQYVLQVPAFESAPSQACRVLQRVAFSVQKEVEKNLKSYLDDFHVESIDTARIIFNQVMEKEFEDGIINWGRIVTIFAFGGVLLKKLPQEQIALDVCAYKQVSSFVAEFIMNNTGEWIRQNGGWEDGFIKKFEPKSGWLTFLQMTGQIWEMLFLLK

[2] = molecular target: T1, Bcl-2-related protein A1; assay: Bfl-1 inhibitors blocking BH3 peptide binding, confirmation, biochemical, TR-FRET, mouse Bfl-1 (AID 621);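 further: TR-FRET binding of GST-Bfl-1 to FITC-labelled Bid peptide via terbium antibody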
[3] = molecular target: Glyceraldehyde-3-phosphate dehydrogenase (Homo sapiens, UniProt P04406)
[4] = molecular target: T2, Aminopeptidase N (Plasmodium falciparum FcB1/Columbia, UniProt O96935); assay: P. falciparum M1AAP inhibitors, biochemical, fluorogenic H-Leu-NHMec substrate, 1536-well (AID 1445); design: species or system Plasmodium falciparum 3D7, 3D7
T2 sequence (O96935 whole entry): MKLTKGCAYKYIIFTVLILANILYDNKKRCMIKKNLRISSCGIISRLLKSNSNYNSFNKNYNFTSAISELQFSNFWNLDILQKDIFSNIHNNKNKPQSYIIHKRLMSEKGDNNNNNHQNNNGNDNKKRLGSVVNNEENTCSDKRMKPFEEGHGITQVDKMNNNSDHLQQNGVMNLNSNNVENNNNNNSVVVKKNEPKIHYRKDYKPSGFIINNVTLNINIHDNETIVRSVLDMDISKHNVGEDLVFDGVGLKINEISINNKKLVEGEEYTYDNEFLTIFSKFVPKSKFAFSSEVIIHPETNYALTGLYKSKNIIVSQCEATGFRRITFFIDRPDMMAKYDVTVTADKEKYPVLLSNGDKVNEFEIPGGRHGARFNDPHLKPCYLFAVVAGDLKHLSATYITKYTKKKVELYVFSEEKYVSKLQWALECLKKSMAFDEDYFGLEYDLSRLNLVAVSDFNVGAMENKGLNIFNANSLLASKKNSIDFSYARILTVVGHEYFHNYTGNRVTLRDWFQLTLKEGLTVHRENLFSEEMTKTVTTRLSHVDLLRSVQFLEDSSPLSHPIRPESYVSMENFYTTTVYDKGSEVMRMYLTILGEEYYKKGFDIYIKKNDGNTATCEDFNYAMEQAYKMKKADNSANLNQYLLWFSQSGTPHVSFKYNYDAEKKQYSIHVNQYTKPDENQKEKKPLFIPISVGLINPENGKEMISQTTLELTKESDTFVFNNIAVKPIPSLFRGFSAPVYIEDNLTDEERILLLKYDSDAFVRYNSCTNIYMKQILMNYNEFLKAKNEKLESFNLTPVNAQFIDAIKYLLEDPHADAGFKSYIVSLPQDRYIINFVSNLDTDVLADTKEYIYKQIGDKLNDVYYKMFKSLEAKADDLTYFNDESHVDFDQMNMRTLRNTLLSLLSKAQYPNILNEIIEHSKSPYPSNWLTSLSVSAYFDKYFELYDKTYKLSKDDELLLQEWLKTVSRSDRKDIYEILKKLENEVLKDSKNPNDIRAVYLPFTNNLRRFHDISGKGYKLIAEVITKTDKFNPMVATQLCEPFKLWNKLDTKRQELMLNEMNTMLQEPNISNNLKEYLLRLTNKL

[5] = molecular target: Procathepsin L (Homo sapiens, UniProt P07711); assay: cathepsin L inhibitors, dose response, counter-screen for M1/M17 aminopeptidase inhibitor project, biochemical, QFRET, 1536-well (AID 2214)
[6] = molecular target: Aspartyl aminopeptidase (Plasmodium falciparum 3D7, UniProt Q8I2J3); assay: Counterscreen for inhibitors of M1 and M17 aminopeptidases: QFRET-based biochemical high throughput dose response assay for inhibitors of the Plasmodium falciparum M18 Aspartyl Aminopeptidase (PFM18AAP). [Related PubChem assays: 1619 (Screening assay (M17LAP inhibitors).), 1445 (Screening assay (M1AAP inhibitors).)]
[7] = molecular target: Sphingosine 1-phosphate receptor 2 (Homo sapiens, UniProt O95136); assay: Dose Response Cell Based Assay for Agonists of the S1P2 Receptor of Purchased Analogues. [Related pubchem assays: 729, 843, 854, 736 ]; assay type: functional
[8] = molecular target: T3, NADPH oxidase 1 (Homo sapiens, UniProt Q9Y5S8); assay: Late-stage luminescence-based cell-based dose response assay to identify inhibitors of NADPH oxidase 1 (NOX1): Purchased analogs 2.; assay type: functional
T3 sequence (Q9Y5S8 whole entry): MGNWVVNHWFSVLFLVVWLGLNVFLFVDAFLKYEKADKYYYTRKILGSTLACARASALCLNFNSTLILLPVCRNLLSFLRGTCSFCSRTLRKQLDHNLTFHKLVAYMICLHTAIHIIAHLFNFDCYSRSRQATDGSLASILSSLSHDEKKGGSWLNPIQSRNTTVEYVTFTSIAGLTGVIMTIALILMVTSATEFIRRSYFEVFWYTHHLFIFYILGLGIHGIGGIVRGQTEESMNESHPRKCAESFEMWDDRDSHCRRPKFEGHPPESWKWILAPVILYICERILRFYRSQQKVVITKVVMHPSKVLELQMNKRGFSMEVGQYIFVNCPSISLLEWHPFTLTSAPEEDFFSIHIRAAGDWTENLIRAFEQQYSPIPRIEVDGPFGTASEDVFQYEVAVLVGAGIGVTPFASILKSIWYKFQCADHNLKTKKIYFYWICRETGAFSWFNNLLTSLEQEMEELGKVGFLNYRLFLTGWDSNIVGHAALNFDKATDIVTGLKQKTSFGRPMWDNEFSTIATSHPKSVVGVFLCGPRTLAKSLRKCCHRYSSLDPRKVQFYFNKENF

[9] = molecular target: T3, NADPH oxidase 1; assay: Late-stage luminescence-based cell-based dose response assay to identify inhibitors of NADPH oxidase 1 (NOX1): Synthesized analogs 3.; assay type: functional
[10] = Luminescence Cell-Based Dose Response HTS to Identify Inhibitors of 5'UTR Stem-Loop Driven Prion Protein mRNA Translation in H4 Neuroglioblastoma Cells. [Related pubchem assays: 1827 (Project Summary), 1813 (Primary HTS)]; assay type: functional
[11] = system: HT-1080; assay: cytotoxicity in HT1080 fibrosarcoma cells, cell-based, fluorescence readout (AID 620); assay type: functional; conditions: Homo sapiens
[12] = molecular target: Luciferin 4-monooxygenase (Photinus pyralis, UniProt P08659); assay: Counter Screen for Luciferase-based Assay Positives. [Related pubchem assays: 620, 618, 411 ]
[13] = Luminescence Cell-Based Dose Confirmation HTS to Identify Inhibitors of Polyadenylation.; assay type: functional
[14] = inhibitors of SNCA 5'UTR-driven reporter translation, confirmation, H4 neuroglioma cells, luminescence (AID 1988); assay type: functional, cell-based
[15] = system: Vero; assay: West Nile virus antiviral activity, cell-based, CPE readout (AID 1621); assay type: functional; conditions: Chlorocebus sabaeus
[16] = molecular target: Genome polyprotein (Hepatitis C virus, UniProt Q2Q167); assay: HCV core protein dimerization inhibitors, dose response, biochemical, TR-FRET (AID 2159); design: species or system Hepacivirus hominis;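 further: blocks dimerization of HCV core protein measured by TR-FRET between tagged core106 pairs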
[17] = molecular target: Voltage-gated inwardly rectifying potassium channel KCNH2 (Homo sapiens, UniProt Q12809); assay: hERG protection from proarrhythmic block, potency, dose response, cell-based, thallium flux (AID 2121); assay type: ADME
[18] = molecular target: T4, Dual specificity protein phosphatase 3 (Homo sapiens, UniProt P51452); assay: VHR1 phosphatase inhibitors, biochemical (AID 1878)
[19] = molecular target: T5, Dual specificity protein phosphatase 6 (Rattus norvegicus, UniProt Q64346); assay: MKP-3 phosphatase inhibitors, primary screen, biochemical, rat enzyme, in vitro (AID 425)
T5 sequence (Q64346 whole entry): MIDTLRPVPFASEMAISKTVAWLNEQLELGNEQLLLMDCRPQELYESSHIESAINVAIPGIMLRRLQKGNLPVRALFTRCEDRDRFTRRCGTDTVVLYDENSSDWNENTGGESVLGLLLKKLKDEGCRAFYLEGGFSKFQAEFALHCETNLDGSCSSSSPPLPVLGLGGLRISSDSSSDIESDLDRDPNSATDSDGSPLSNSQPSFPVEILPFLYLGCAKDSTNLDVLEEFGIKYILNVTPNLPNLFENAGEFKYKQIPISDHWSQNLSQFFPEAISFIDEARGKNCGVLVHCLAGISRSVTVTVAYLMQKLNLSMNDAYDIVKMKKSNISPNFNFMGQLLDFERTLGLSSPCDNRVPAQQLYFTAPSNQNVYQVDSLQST

[20] = molecular target: Likely tRNA 2'-phosphotransferase (Candida albicans (strain SC5314 / ATCC MYA-2876) (Yeast), UniProt Q5A7N4); assay: TPT1 tRNA phosphotransferase inhibitors, dose response, biochemical, fluorescence polarization (AID 2160)
[21] = molecular target: T4, Dual specificity protein phosphatase 3; assay: VHR1 phosphatase inhibitors, primary screen, biochemical, absorbance, uHTS (AID 1654)
[22] = molecular target: Guanyl-specific ribonuclease T1 (Aspergillus oryzae (strain ATCC 42149 / RIB 40), UniProt P00651); assay: RNase T1 inhibitors, dose response, counter-screen for TPT1 inhibitor project, biochemical, fluorescence polarization, 1536-well (AID 2167)
[23] = cytotoxicity in HPDE-C7 cells, cell-based, fluorescence, HTS (AID 430); assay type: functional; conditions: Homo sapiens
[24] = system: Streptococcus sp. 'group A'; assay: growth inhibition of control SK(-) GAS strain, dose response, counter-screen for streptokinase expression inhibitor project, luminescence, kanamycin, BacTiterGlo, confirmation (AID 1900); assay type: functional, organism-based
[25] = system: Streptococcus; assay: Group A Streptococcus viability loss, dose response, counter-screen for streptokinase expression inhibitor project, luminescence, BacTiterGlo (AID 1915); assay type: functional, organism-based;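 further: potency for reduction of bacterial viability or growth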
[26] = cytotoxicity in KRAS-transformed pancreatic duct cells, primary screen, cell-based, fluorescence, HTS (AID 431); assay type: functional; conditions: Homo sapiens;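 further: cell line used: HPDE-C7K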
[27] = Luminescence Cell-Based Dose Confirmation HTS to Identify Activators of 5'UTR Stem-Loop Driven Alpha-Synuclein mRNA Translation in H4 Neuroglioblastoma Cells. [Related pubchem assays: 1829 (Project Summary), 1814 (Primary HTS)]; assay type: functional
[28] = Luminescence Cell-Based Dose Response HTS to Identify Activators of Luciferase Translation or Activity in H4 […] Cells. [Related pubchem assays: 1829 (Project Summary), 1814 (Primary HTS)]; assay type: functional
[29] = A High Throughput Confirmatory Assay used to Identify Novel Compounds that Inhibit Mycobacterium Tuberculosis in the absence of Glycerol.; assay type: functional
[30] = system: H4; assay: Luminescence Cell-Based Dose Response HTS to Identify Activators of 5'UTR Stem-Loop Driven Prion Protein mRNA Translation in H4 Neuroglioblastoma Cells. [Related pubchem assays: 1829 (Project Summary), 1814 (Primary HTS)]; assay type: functional; conditions: Homo sapiens
[31] = molecular target: T3, NADPH oxidase 1; assay type: functional, cell-based

T4 sequence (P51452 whole entry): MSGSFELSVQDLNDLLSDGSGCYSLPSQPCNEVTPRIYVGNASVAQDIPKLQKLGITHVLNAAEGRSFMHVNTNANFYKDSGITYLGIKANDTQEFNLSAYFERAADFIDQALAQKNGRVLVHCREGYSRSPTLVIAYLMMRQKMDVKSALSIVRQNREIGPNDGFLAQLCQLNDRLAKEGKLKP
Chain of Likely tRNA 2'-phosphotransferase (Q5A7N4 whole entry): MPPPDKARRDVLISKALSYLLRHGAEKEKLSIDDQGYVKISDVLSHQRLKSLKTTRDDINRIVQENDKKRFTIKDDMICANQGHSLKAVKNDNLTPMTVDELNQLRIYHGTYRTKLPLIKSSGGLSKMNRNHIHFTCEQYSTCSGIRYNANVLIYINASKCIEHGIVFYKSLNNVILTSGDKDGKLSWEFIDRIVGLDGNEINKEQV
Chain of Glyceraldehyde-3-phosphate dehydrogenase (P04406 whole entry): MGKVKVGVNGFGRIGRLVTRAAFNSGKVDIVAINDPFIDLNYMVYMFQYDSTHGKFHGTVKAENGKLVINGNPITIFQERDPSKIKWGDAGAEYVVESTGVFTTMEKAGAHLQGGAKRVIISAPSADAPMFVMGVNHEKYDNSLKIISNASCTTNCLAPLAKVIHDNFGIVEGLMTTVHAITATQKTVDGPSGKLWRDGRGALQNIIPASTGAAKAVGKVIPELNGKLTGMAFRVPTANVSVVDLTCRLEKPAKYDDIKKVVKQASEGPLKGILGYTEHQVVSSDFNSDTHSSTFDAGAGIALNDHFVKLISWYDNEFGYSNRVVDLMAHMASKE
Chain of Voltage-gated inwardly rectifying potassium channel KCNH2 (Q12809 whole entry): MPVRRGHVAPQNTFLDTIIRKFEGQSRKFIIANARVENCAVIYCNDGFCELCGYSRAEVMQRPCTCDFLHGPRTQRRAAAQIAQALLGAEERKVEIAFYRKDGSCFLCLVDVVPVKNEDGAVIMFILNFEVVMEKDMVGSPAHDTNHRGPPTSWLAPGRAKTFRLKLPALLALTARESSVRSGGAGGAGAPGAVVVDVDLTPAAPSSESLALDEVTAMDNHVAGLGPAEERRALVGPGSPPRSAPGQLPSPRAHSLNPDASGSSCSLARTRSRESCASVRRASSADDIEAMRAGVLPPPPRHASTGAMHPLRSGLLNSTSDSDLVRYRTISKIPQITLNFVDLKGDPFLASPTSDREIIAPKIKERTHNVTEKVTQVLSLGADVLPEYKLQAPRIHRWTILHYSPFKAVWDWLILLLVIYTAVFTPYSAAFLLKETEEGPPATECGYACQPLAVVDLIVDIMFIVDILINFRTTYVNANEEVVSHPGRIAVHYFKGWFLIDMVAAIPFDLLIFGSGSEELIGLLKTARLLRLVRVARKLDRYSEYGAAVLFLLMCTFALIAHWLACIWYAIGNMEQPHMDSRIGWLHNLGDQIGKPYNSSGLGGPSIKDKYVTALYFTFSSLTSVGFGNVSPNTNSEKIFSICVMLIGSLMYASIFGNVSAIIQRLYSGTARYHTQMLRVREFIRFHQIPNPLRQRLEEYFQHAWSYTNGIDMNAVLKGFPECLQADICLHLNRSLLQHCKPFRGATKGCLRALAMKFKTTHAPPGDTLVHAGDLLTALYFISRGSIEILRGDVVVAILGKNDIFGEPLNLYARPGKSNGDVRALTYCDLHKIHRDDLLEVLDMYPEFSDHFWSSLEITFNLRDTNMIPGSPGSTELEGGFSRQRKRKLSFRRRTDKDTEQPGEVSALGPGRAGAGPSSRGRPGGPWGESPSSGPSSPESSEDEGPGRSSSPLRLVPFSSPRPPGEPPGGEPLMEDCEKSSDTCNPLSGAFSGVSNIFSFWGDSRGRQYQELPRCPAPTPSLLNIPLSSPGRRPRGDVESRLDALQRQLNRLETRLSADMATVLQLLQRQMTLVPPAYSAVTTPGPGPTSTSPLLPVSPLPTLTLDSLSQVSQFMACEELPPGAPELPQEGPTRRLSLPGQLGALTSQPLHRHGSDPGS
Chain of Luciferin 4-monooxygenase (P08659 whole entry): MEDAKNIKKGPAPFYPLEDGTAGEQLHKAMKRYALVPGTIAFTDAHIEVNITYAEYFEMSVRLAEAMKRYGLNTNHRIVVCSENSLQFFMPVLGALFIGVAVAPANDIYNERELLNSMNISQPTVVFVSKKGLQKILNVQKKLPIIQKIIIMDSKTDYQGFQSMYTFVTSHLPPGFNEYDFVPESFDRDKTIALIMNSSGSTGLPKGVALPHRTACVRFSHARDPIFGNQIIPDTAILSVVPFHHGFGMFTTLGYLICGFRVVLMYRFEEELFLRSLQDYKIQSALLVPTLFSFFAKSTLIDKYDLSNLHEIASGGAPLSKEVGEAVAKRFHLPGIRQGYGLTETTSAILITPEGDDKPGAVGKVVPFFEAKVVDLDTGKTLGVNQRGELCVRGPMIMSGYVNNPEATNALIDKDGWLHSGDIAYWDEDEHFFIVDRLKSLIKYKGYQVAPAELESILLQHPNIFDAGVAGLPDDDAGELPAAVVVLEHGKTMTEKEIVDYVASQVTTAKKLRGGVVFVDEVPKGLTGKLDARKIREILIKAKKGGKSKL
Chain of Procathepsin L (P07711 whole entry): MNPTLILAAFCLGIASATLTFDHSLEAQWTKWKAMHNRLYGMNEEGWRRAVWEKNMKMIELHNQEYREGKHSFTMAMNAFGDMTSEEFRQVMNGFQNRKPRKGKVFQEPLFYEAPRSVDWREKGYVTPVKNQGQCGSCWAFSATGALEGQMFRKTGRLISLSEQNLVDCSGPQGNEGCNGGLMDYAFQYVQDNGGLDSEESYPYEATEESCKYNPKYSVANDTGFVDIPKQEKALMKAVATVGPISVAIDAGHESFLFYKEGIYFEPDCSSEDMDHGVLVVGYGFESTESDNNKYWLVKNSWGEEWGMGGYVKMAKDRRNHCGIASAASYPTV
Chain of Aspartyl aminopeptidase (Q8I2J3 whole entry): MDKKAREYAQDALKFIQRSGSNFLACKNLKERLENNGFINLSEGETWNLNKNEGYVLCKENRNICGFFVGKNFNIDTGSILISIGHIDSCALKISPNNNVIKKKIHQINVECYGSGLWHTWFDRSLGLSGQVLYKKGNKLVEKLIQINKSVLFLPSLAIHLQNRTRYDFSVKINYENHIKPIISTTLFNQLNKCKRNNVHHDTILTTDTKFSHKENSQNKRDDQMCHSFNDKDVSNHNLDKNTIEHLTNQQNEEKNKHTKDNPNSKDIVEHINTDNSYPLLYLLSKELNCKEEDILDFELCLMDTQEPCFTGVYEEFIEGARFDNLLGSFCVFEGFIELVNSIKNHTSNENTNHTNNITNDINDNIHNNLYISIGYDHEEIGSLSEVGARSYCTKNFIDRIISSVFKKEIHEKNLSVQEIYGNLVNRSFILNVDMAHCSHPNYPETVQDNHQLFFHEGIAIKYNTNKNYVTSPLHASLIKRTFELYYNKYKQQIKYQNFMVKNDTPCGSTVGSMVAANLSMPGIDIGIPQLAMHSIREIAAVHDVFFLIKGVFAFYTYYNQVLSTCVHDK
Chain of Sphingosine 1-phosphate receptor 2 (O95136 whole entry): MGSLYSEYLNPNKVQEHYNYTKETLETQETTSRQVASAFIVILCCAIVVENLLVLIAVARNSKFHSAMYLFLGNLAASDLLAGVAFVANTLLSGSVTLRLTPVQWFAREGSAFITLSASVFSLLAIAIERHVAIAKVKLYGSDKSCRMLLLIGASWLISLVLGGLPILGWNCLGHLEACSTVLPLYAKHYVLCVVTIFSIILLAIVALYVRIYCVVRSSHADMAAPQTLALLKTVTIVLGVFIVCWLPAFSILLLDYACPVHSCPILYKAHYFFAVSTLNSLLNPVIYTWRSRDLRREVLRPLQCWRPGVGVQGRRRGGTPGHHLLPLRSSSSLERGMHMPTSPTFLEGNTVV
Chain of Genome polyprotein (Q2Q167 whole entry): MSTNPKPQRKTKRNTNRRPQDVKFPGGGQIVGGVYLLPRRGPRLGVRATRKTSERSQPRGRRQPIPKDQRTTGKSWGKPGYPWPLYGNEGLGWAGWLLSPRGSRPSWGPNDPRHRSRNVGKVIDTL
Chain of Guanyl-specific ribonuclease T1 (P00651 whole entry): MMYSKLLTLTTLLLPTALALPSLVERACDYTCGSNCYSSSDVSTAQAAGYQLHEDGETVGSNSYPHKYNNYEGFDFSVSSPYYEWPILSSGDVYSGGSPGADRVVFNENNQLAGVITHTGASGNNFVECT

## O=C1C(Cl)=C(N2CCCCC2)C(=O)N1c1ccc(Cl)c(Cl)c1
[1]
  IC50: > 100 µM (not active)
[2]
  IC50: 1.3 µM (active)
[3]
  IC50: > 100 µM (not active)

## O=C(O)CCC(=O)N1N=C(c2c(-c3ccccc3)c3cc(Cl)ccc3[nH]c2=O)CC1c1ccccc1 (stereo unspecified)
[4]
  IC50: 4.6 µM (active)
[5]
  IC50: > 59.6 µM (not active)
[6]
  IC50: > 73.5 µM (not active)

## Cc1cc(C(=O)COC(=O)Cn2c(=O)oc3ccccc32)c(C)n1Cc1ccccc1
[7]
  EC50: > 30 µM (not active)

## COc1ccc(/C=N/Nc2c(Cl)cc(Cl)cc2Cl)cc1
[8]
  IC50: > 17 µM (not active)

## CN1c2ccc(N)cc2Sc2cc(C(=O)c3ccccc3)ccc21
[9]
  IC50: 0.201 µM (active)

## O=c1c2sc(-c3ccccc3)cc2nc2n1CCC2
[10]
  EC50: 11.8 µM (inconclusive)
[11]
  EC50: > 50 µM (not active)
[12]
  EC50: < 0.2 µM (active)
[13]
  EC50: > 120 µM (not active)
[14]
  EC50: 8.3 µM (active)

## Cc1ccc2cc(C#N)c(N3CCCN(C(S)=NCCCN(C)C)CC3)nc2c1
[15]
  IC50: 24.4 µM (active)

## Cc1ccccc1N1C(=O)/C(=C/c2ccco2)C(=O)NC1=S
[16]
  IC50: 4.78 µM (active)
[17]
  EC50: 0.71 µM (active)
[18]
  IC50: < 1.23 µM (inactive)
[19]
  IC50: < 1.23 µM (not active)
[20]
  IC50: 2.44 µM (active)
[21]
  IC50: < 1.23 µM (inactive)
[22]
  IC50: > 55.7 µM (not active)

## Oc1nc2ccc(Cl)cc2c(-c2ccccc2)c1N1CCN(c2ccccn2)CC1
[23]
  EC50: 5.29 µM (active)
[24]
  EC50: 5.29 µM (active)
[25]
  EC50: 45.8 µM (active)
[26]
  EC50: 8.58 µM (active)

## COc1ccc2c(c1)CC/C(=C\C=C\c1ccccc1OC)C2=O
[27]
  EC50: > 120 µM (not active)
[28]
  EC50: 1.99 µM (active)
[29]
  IC50: > 100 µM (active)
[30]
  EC50: 13.8 µM (active)

## Oc1ccccc1-c1nc(-c2ccccc2)c(-c2ccccc2)[nH]1
[31]
  IC50: > 17 µM (not active)
